Values of other authors in publication PMC10005815 (Journal of Medicinal Chemistry, 2023).
pEC50, pIC50, pKd, pKi: −log10 of the molar value. Read-outs that look alike come from different tables or passages of the source. * marks the point of attachment. Cbz = O=C(OCc1ccccc1)*

Legend:
[1] = test system: SARS-CoV-1
[2] = test system: SARS-CoV-2
[3] = test system: SARS-CoV-1 M^pro; conditions: for pKi: read-out: SARS-CoV-1 M^pro Ki
[4] = test system: SARS-CoV-1 replicon
[5] = test system: SARS-CoV-2 PsV
[6] = target: HCoV-229E M^pro
[7] = test system: TMPRSS2
[8] = buffer
[9] = test system: MERS-CoV
[10] = test system: SARS-CoV-1; conditions: mouse, in vivo
[11] = rat, in vivo
[12] = target: SARS-CoV-2 M^pro
[13] = test system: Vero cells
[14] = test system: SARS-CoV-2 Omicron BA.1 and BA.2; conditions: in vivo
[15] = test system: panel of proteases; conditions: read-out: IC50 proteases (selectivity panel)
[16] = target: TMPRSS2; remark: listed apart in the source
[17] = test system: SARS-CoV-1 PL^pro
[18] = test system: HCoV-229E; conditions: for pEC50: read-out: HCoV-229E EC50
[19] = test system: Ebola
[20] = test system: Vero E6 cells
[21] = test system: COVID-19; conditions: human, in vivo
[22] = test system: human mitochondrial RNA polymerase (h-mtRNAP)
[23] = test system: HCoV-OC43; conditions: read-out: HCoV-OC43 EC90
[24] = test system: Vero E6/TMPRSS2 cells
[25] = target: RdRp from SARS-CoV-2; conditions: read-out: Predicted Ki for binding to the protein active site
[26] = test system: MERS-CoV S protein-mediated cell–cell fusion; conditions: read-out: IC50 in vitro fusion assay (MERS-CoV)
[27] = test system: HCoV-NL63 M^pro
[28] = target: Akt
[29] = read-out: SARS-CoV-1 M^pro IC50

Compound: O=C(O)C1=CC(=C(c2ccc(O)c(C(=O)O)c2)c2ccc(O)c(C(=O)O)c2)C=CC1=O [ATA, Aurintricarboxylic acid]
- Inhibition of mRNA transcription with respect to control [1]: more than 1000 fold
- SARS-CoV-1 replication IC50 [1]: 200 µg/mL

Compound: CC(C)(C)OC(=O)Nc1cccn([C@@H](CC2CC2)C(=O)N[C@@H](C[C@@H]2CCNC2=O)C(=O)C(=O)NCc2ccccc2)c1=O [13b]
- pEC50 ([2]; read-out: SARS-CoV-2 EC50): 5.40
- pIC50 [3, 29]: 6.05
- pEC50 [4]: 5.76

Compound: CCOC(=O)[C@H]1OC1C(=O)N[C@@H](CC(C)C)C(=O)NCCC(C)C (stereo partly drawn) [E64D]
- Reduction in the entry of SARS-CoV-2 PsV [5]: 92.5%

Compound: CC(OC(C)(C)C)[C@H](NC(=O)OCc1ccccc1)C(=O)N[C@@H](CC1CCCCC1)C(=O)N[C@H](C=O)C[C@@H]1CCNC1=O (stereo partly drawn) [TG-0205221]
- pKi [6]: 7.17
- pKi [3]: 7.28

Compound: N=C(N)Nc1ccc(C(=O)O)cc1 [GBA, 4-guanidinobenzoic acid]
- TMPRSS2 inhibition [7]: inactive

Compound: O=C(Oc1cncc(Br)c1)c1ccco1 [compound 39]
- T1/2 [8]: [drawing 13] 39 SARS-CoV-1 M^pro IC50= 50 nM T1/2 = 119 h, phosphate buffer pH= 7.5
- pIC50 [3, 29]: 7.30

Compound: CN(C)C(=O)COC(=O)Cc1ccc(OC(=O)c2ccc(NC(=N)N)cc2)cc1 [Camostat]
- Reduction of MERS-CoV production [9]: 270 fold
- Survival rate to SARS-CoV-1 [10]: ~60%

Compound: COc1cccc2[nH]c(C(=O)N[C@@H](CC(C)C)C(=O)N[C@@H](C[C@@H]3CCNC3=O)C(=O)c3nc4ccccc4s3)cc12 [5h]
- Bioavailability [11]: low bioavailability
- pKi ([12]; read-out: SARS-CoV-2 M^pro Ki): 7.75
- pKi [3]: 8.20

Compound: NC1(C(=O)N[C@@H](CCO)c2ccc(Cl)cc2)CCN(c2ncnc3[nH]ccc23)CC1 [Capivasertib]
- 50% cytotoxicity concentration [13]: 82 µM

Compound: CC(C)C(=O)OC[C@H]1O[C@@H](n2ccc(NO)nc2=O)[C@H](O)[C@@H]1O [Molnupiravir]
- Effect on virus titers [14]: only reduced the lung virus titers
- Efficacy in inhibiting SARS-CoV-2 replication relative to remdesivir [2]: 5–10 fold

Compound: COc1cccc2[nH]c(C(=O)N[C@@H](CC(C)C)C(=O)N[C@@H](C[C@@H]3CCNC3=O)C(=O)CO)cc12 [PF-00835231]
- pIC50 [15]: < 5.00
- pEC50 ([1]; read-out: SARS-CoV-1 EC50): 5.32

Compound: N=C(N)c1cccc(C[C@H](NS(=O)(=O)c2cccc(-c3ccc(Cl)cc3Cl)c2)C(=O)N2CCC(CCN)CC2)c1 [I-432]
- pKi [16]: 9.05

Compound: CCC(C)(C)NC(=O)C(c1ccn(C)c1)N(C(=O)Cn1nnc2ccccc21)c1ccc(NC(C)=O)cc1 (stereo not drawn) [SID24808289]
- pIC50 [17]: < 4.22
- pIC50 [3, 29]: 5.21

Compound: CN(C)CCCSc1ccccc1NC(=O)/C=C/c1ccccc1 [cinanserin]
- pIC50 ([18]; read-out: HCoV-229E IC50 (antiviral assay)): 4.72
- pIC50 ([3]; read-out: M^pro IC50): ~5.30

Compound: Cc1cccc(/C=N/Nc2cc(N3CCOCC3)nc(OCCc3ccccn3)n2)c1 [Apilimod]
- Concentration preventing EVD infection of several cell lines [19]: ~0.1 µM

Compound: CCOc1cc2ncc(C#N)c(Nc3ccc(F)c(Cl)c3)c2cc1NC(=O)/C=C/CN(C)C [pelitinib]
- pEC50 ([2]; read-out: EC50 (antiviral)): 5.90

Compound: O=C(Oc1cncc(Cl)c1)c1cccc2[nH]ccc12 [compound 10]
- pEC50 ([1]; read-out: SARS-CoV-1 EC50): 5.16
- pIC50 [3, 29]: 7.52

Compound: Cc1cc(C(=O)N[C@@H](C)C(=O)N[C@H](C(=O)N[C@@H](CC(C)C)C(=O)N[C@H](/C=C/C(=O)OCc2ccccc2)C[C@@H]2CCNC2=O)C(C)C)no1 [N3]
- pKi [6]: 5.78

Compound: CCC(CC)COC(=O)[C@H](C)N[P@](=O)(OC[C@H]1O[C@@](C#N)(c2ccc3c(N)ncnn23)[C@H](O)[C@@H]1O)Oc1ccccc1 [remdesivir, Remdesivir]
- CC50 [20]: > 100000 nM
- pIC50 ([2]; read-out: SARS-CoV-2 infection IC50): 6.11
- Reduction of hospitalization compared to placebo [21]: 87%

Compound: O=C[C@H](C[C@@H]1CCNC1=O)NC(=O)[C@H](Cc1ccccc1)NC(=O)c1cc2ccccc2[nH]1 [18p]
- pEC50 ([2]; read-out: SARS-CoV-2 EC50): 6.54

Compound: N#C[C@@]1(c2ccc3c(N)ncnn23)O[C@H](COP(=O)(O)OP(=O)(O)OP(=O)(O)O)[C@@H](O)[C@H]1O [remdesivir-TP]
- Selectivity with respect to ATP [22]: up to 500 fold

Compound: O=C(On1nnc2ccccc21)c1ccc2[nH]ccc2c1 [compound 8]
- pKi [3]: 8.12

Compound: CC(C)(C)[C@H](NC(=O)C(F)(F)F)C(=O)N1C[C@H]2[C@@H]([C@H]1C(=O)N[C@H](C#N)C[C@@H]1CCNC1=O)C2(C)C [PF-07321332]
- Effect on virus titers [14]: only reduced the lung virus titers

Compound: CCc1ccccc1NC(=O)CSC(=O)NNC(=O)[C@H](Cc1c[nH]c2ccccc12)NC(=O)OC(C)(C)C [SID-26681509]
- Decrease of SARS-CoV-2 pseudovirion entry [5]: about 76%

Compound: Cn1cnc(Cn2c(=O)[nH]/c(=N\c3cc4cn(C)nc4cc3Cl)n(Cc3cc(F)c(F)cc3F)c2=O)n1 [S-217622]
- EC90 [23]: 74 nM
- Effect on virus titers [14]: additionally decreased the virus titers in the nasal turbinates
- pEC50 ([9]; read-out: MERS-CoV EC50): 5.85
- pEC50 ([2]; read-out: SARS-CoV-2 WT strain EC50): 6.43
- pEC50 [18]: 5.26
- pEC50 ([1]; read-out: SARS-CoV-1 EC50): 6.68
- CC50 [24]: > 100000 nM

Compound: COc1ccc2c(c1)[C@@H]1C[C@]1(C(=O)N1[C@@H]3CC[C@H]1CN(C)C3)Cn1c-2c(C2CCCCC2)c2ccc(C(=O)NS(=O)(=O)N(C)C)cc21 [Beclabuvir]
- pKi [25]: ~7.30

Compound: N=C(N)Nc1ccc(C(=O)Oc2ccc3cc(C(=N)N)ccc3c2)cc1 [Nafamostat]
- pIC50 [26]: ~9.00

Compound: COc1cccc2[nH]c(C(=O)N[C@@H](CC(C)C)C(=O)N[C@@H](C[C@@H]3CCCNC3=O)C(=O)COC(=O)c3c(C)cc(C)nc3C)cc12 [15l]
- pIC50 ([12]; read-out: SARS-CoV-2 M^pro IC50): 7.72
- pEC50 [18]: 7.32

Compound: O=C(/C=C/c1ccccc1)N[C@@H](CC1CCCCC1)C(=O)N[C@@H](C[C@@H]1CCNC1=O)C(=O)C(=O)NCc1ccccc1 [11r]
- S.I. MERS-CoV (CC50/EC50) [9]: 1.1 × 10^5
- pEC50 [18]: 5.74
- pEC50 ([1]; read-out: SARS-CoV-1 EC50): 5.68
- pIC50 [3, 29]: 6.15
- pIC50 [27]: 4.91

Compound: Cbz-Val-Phe-aldehyde [MDL28170]
- pEC50 ([1]; read-out: EC50 neutral red uptake assay): 6.30

Compound: COc1ccc(C(=O)Nc2cccc(C(F)(F)F)c2)cc1Nc1nc(-c2cccnc2)c2[nH]ccc2n1 [XMU-MP-7]
- pKd [28]: 8.19
